In patent publication US4013657A, “O-ethyl-S-n-propyl-O-[pyridaz-(6)-on-(3)-yl]-thionothiolphosphoric acid esters” (priority 1973, dated 1977):
Like-named read-outs stand apart in the source and are kept apart here.

Legend:
[1] = Toxicity test, albino rat/peroral; conditions: in vivo, po; albino rat; peroral; evaluation after 7 days
Procedure: Test animal: Albino rat (Rattus norvegicus)
To produce a suitable preparation of active compound, 3 parts by weight of active compound were mixed with 2.8 parts by weight of highly disperse silica and 4.2 parts by weight of talc. Suspensions, which contained, in 1 ml of liquid, the amount of active compound to be adminstered per 100 g of animal weight, were prepared from the above active-compound concentrate, with addition of a little powdered vegetable gum, by trituration with water. The dosage was measured out volumetrically after weighing the test animals. It was administered orally by means of a steel knob-ended probe. The results were in each case evaluated at the end of the above-mentioned interval of time, calculated from the administration of the active compound.
The LD50 values (dose of active compound which kills 50% of the treated animals) was determined from the mortality values of the dose which were varied in geometrical progression, in the usual manner.
The active compounds and LD50 values can be seen from Table 5 which follows.

[2] = tested on: fly larvae (Lucilia cuprina); assay: Test with parasitic fly larvae/Lucilia cuprina res.; format: in vivo; conditions: after 24 hours, resistant larvae, read-out: Degree of destruction in %; for mortality at 10 ppm: active compound concentration 10 ppm; for mortality at 30 ppm: active compound concentration 30 ppm; for mortality at 100 ppm: active compound concentration 100 ppm
Procedure: Test with parasitic fly larvae
35 parts by weight of ethylene polyglycol monomethyl ether
35 parts by weight of nonylphenol polyglycol ether
To produce a suitable preparation of active compound, 30 parts by weight of the active substance in question were mixed with the stated amount of solvent which contained the above-mentioned proportion of emulsifier and the concentrate thus obtained was diluted with water to the desired concentration.
About 20 fly larvae (Lucilia cuprina) were introduced into a test tube which contained approximately 2 ml of horse muscle. 0.5 ml of the preparation of active compound was applied to this horse meat. After 24 hours, the degree of destruction in % was determined. 100% means that all the larvae had been killed and 0% means that no larvae had been killed.

[3] = tested on: vinegar flies (Drosophila melanogaster); assay: Drosophila test; format: in vivo; conditions: 24 h, read-out: Degree of destruction in % after 1 day; for mortality at 0.01 %: active compound concentration 0.01 %
Procedure: (§1) Solvent: 3 parts by weight of acetone
(§2) Emulsifier: 1 part by weight of alkylaryl polyglycol ether
To produce a suitable preparation of active compound, 1 part by weight of the active compound was mixed with the stated amount of solvent containing the stated amount of emulsifier, and the concentrate was diluted with water to the desired concentration.
1 ml of the preparation of the active compound was applied with a pipette to a filter paper disc of 7 cm diameter. The wet disc was placed over the orifice of a glass vessel containing 50 vinegar flies (Drosophila melanogaster) and covered with a glass plate.
After the specified periods of time, the destruction was determined in %. 100% means that all the flies were killed, and 0% means that no flies were killed.
The active compounds, the concentrations of the active compounds, the evaluation times and the degree of destruction can be seen from the following Table 1: […]

[4] = tested on: two-spotted spider mite (Tetranychus urticae); assay: Tetranychus test (resistant); format: in vivo; conditions: 48 h, after 2 days, resistant mites, read-out: Degree of destruction in % after 2 days; for mortality at 0.01 %: active compound concentration 0.01 %; for mortality at 0.1 %: active compound concentration 0.1 %
Procedure: Tetranychus test (resistant)
as §1, §2
(§3) To produce a suitable preparation of active compound, 1 part by weight of the active compound was mixed with the stated amount of solvent containing the stated amount of emulsifier and the concentrate was diluted with water to the desired concentration.
These bean plants were heavily infested with the two-spotted spider mite (Tetranychus urticae) in all stages of development.
After the specified periods of time, the effectiveness of the preparation of active compound was determined by counting the dead mites. The degree of destruction thus obtained was expressed as a percentage: 100% means that all the spider mites were killed whereas 0% means that none of the spider mites were killed.
The active compounds, the concentrations of the active compounds, the evaluation times and the results can be seen from the following Table 3: […]

[5] = tested on: caterpillars of the diamond-back moth (Plutella maculipennis); assay: Plutella test; format: in vivo; conditions: 72 h, read-out: Degree of destruction in % after 3 days; for mortality at 0.001 %: active compound concentration 0.001 %; for mortality at 0.01 %: active compound concentration 0.01 %
Procedure: as §1, §2, §3
Cabbage leaves (Brassica oleracea) were sprayed with the preparation of the active compound until dew moist and were then infested with caterpillars of the diamond-back moth (Plutella maculipennis).
After the specified periods of time, the degree of destruction was determined as a percentage: 100% means that all the caterpillars were killed, whereas 0% means that none of the caterpillars were killed.
The active compounds, the concentrations of the active compounds, the evaluation times and the results can be seen from the following Table 2.

[6] = tested on: warm-blooded animals; conditions: prior-art compounds; cited from earlier work
[7] = tested on: insects and acarids; conditions: prior-art compounds; cited from earlier work
[8] = active compound concentration 0.1 %, after 1 day
[9] = active compound concentration 0.1 %, after 3 days

CCCSP(=S)(OCC)Oc1ccc(=O)[nH]n1 (stereo not drawn) [Compound 1, O-ethyl-S-n-propyl-O-[pyridaz-(6)-on-(3)-yl]-thionothiolphosphoric acid ester]
LD50 at 168 h [1]: 100 to 250 mg/kg

CCCSP(=S)(OCC)Oc1ccc(=O)n(CCC#N)n1 (stereo not drawn) [Compound 2, O-ethyl-S-n-propyl-O-[1-β-cyanoethyl-pyridaz-(6)-on-(3)-yl]-thionothiolphosphoric acid ester]
mortality at 10 ppm [2]: 100% | mortality at 30 ppm [2]: 100% | mortality at 100 ppm [2]: 100% | LD50 at 168 h [1]: 250 to 500 mg/kg

CCCSP(=S)(OCC)Oc1ccc(=O)n(C)n1 (stereo not drawn) [Compound 3]
mortality at 0.01 % ([3]; after 1 day): 100% | mortality at 0.1 % [3, 8]: 100% | mortality at 0.01 % [4]: 70% | mortality at 0.1 % [4]: 100% | mortality at 10 ppm [2]: 100% | mortality at 30 ppm [2]: 100% | mortality at 100 ppm [2]: 100% | LD50 at 168 h [1]: 100 to 250 mg/kg

C=CCn1nc(OP(=S)(OCC)SCCC)ccc1=O (stereo not drawn) [Compound 6]
mortality at 0.01 % ([3]; after 1 day): 100% | mortality at 0.1 % [3, 8]: 100% | mortality at 0.01 % [4]: 55% | mortality at 0.1 % [4]: 100% | LD50 at 168 h [1]: ~500 mg/kg

C#CCn1nc(OP(=S)(OCC)SCCC)ccc1=O (stereo not drawn) [Compound 7]
mortality at 0.01 % ([3]; after 1 day): 100% | mortality at 0.1 % [3, 8]: 100% | mortality at 0.01 % [4]: 45% | mortality at 0.1 % [4]: 100% | LD50 at 168 h [1]: ~250 mg/kg

CCCSP(=S)(OCC)Oc1ccc(=O)n(CCSCC)n1 (stereo not drawn) [Compound 8]
mortality at 0.01 % ([3]; after 1 day): 100% | mortality at 0.1 % [3, 8]: 100% | mortality at 0.01 % [4]: 80% | mortality at 0.1 % [4]: 100% | LD50 at 168 h [1]: 250 to 500 mg/kg

CCCSP(=S)(OCC)Oc1ccc(=O)n(CC(=O)OCC)n1 (stereo not drawn) [Compound 9]
LD50 at 168 h [1]: ~500 mg/kg

CCCSP(=S)(OCC)Oc1ccc(=O)n(CCC(C)=O)n1 (stereo not drawn) [Compound 10]
LD50 at 168 h [1]: 250 to 500 mg/kg

CCCSP(=S)(OCC)Oc1ccc(=O)n(CCC(=O)OC)n1 (stereo not drawn) [Compound 11]
LD50 at 168 h [1]: ~250 mg/kg

CCCSP(=S)(OCC)Oc1ccc(=O)n(-c2ccccc2)n1 (stereo not drawn) [Compound 13]
mortality at 0.01 % ([3]; after 1 day): 100% | mortality at 0.1 % [3, 8]: 100% | mortality at 0.001 % ([5]; after 3 days): 95% | mortality at 0.01 % ([5]; after 3 days): 100% | mortality at 0.1 % [5, 9]: 100% | mortality at 0.01 % [4]: 100% | mortality at 0.1 % [4]: 100% | LD50 at 168 h [1]: 250 to 500 mg/kg

CCCSP(=S)(OCC)Oc1ccc(=O)n(-c2cccc([N+](=O)[O-])c2)n1 (stereo not drawn) [Compound 14]
mortality at 0.001 % ([5]; after 3 days): 95% | mortality at 0.01 % ([5]; after 3 days): 100% | mortality at 0.1 % [5, 9]: 100% | LD50 at 168 h [1]: > 1000 mg/kg

CCCSP(=S)(OCC)Oc1ccc(=O)n(-c2ccc(C)cc2)n1 (stereo not drawn) [Compound 15]
mortality at 3 ppm ([2]; active compound concentration 3 ppm): > 50% | mortality at 10 ppm [2]: 100% | mortality at 30 ppm [2]: 100% | mortality at 100 ppm [2]: 100% | LD50 at 168 h [1]: ~500 mg/kg

CCCSP(=S)(OCC)Oc1ccc(=O)n(-c2ccc(Cl)cc2)n1 (stereo not drawn) [Compound 16]
LD50 at 168 h [1]: > 1000 mg/kg

CCCSP(=S)(OCC)Oc1ccc(=O)n(-c2cccc(Cl)c2)n1 (stereo not drawn) [Compound 17]
LD50 at 168 h [1]: > 1000 mg/kg

CCCSP(=S)(OCC)Oc1ccc(=O)n(C2CCS(=O)(=O)C2)n1 (stereo not drawn) [Compound 18]
LD50 at 168 h [1]: ~500 mg/kg

CCCSP(=S)(OCC)Oc1nn(CN2CCCC2)c(=O)c2ccccc12 (stereo not drawn) [Compound 19]
mortality at 0.01 % ([3]; after 1 day): 100% | mortality at 0.1 % [3, 8]: 100% | LD50 at 168 h [1]: 100 to 250 mg/kg

CCCSP(=S)(OCC)Oc1nn(CN2CCCCC2)c(=O)c2ccccc12 (stereo not drawn) [Compound 20]
mortality at 0.01 % [4]: 80% | mortality at 0.1 % [4]: 100% | LD50 at 168 h [1]: 250 to 500 mg/kg

CCCSP(=S)(OCC)Oc1n[nH]c(=O)c2ccccc12 (stereo not drawn) [Compound 21]
LD50 at 168 h [1]: ~500 mg/kg

CCOP(=S)(OCC)Oc1n[nH]c(=O)c2ccccc12 [Compound A, O,O-diethyl-O-[phthalaz-(8)-on-(3)-yl]-thionophosphoric acid ester]
mortality at 0.1 % [5, 9]: 0% | mortality at 0.1 % [4]: 0% | LD50 at 168 h [1]: ~25 mg/kg | toxicity to warm-blooded animals [6]: high toxicity to warm-blooded animals | insecticidal and acaricidal properties [7]: good insecticidal and acaricidal properties

CCOP(=S)(OCC)Oc1ccc(=O)[nH]n1 [Compound B, O,O-diethyl-O-[pyridaz-(6)-on-(3)-yl]-thionophosphoric acid ester]
mortality at 0.001 % ([5]; after 3 days): 0% | mortality at 0.01 % ([5]; after 3 days): 80% | mortality at 0.1 % [5, 9]: 100% | mortality at 0.1 % [4]: 20% | mortality at 30 ppm [2]: < 50% | mortality at 300 ppm ([2]; active compound concentration 300 ppm): 100% | LD50 at 168 h [1]: 2.5 to 5 mg/kg | toxicity to warm-blooded animals [6]: high toxicity to warm-blooded animals | insecticidal and acaricidal properties [7]: good insecticidal and acaricidal properties

CCOP(=S)(OCC)Oc1ccc(=O)n(C)n1 [Compound C, O,O-diethyl-O-[1-methyl-pyridaz-(6)-on-(3)-yl]-thionophosphoric acid ester]
LD50 at 168 h [1]: 5 to 10 mg/kg | toxicity to warm-blooded animals [6]: high toxicity to warm-blooded animals | insecticidal and acaricidal properties [7]: good insecticidal and acaricidal properties

CCOP(=S)(OCC)Oc1ccc(=O)n(CCC#N)n1 [Compound D, O,O-diethyl-O-[1-β-cyanoethyl-pyridaz-(6)-on-(3)-yl]-thionophosphoric acid ester]
LD50 at 168 h [1]: 10 to 25 mg/kg | toxicity to warm-blooded animals [6]: high toxicity to warm-blooded animals | insecticidal and acaricidal properties [7]: good insecticidal and acaricidal properties

CCOC(=O)Cn1nc(OP(=S)(OCC)OCC)ccc1=O [Compound E, O,O-diethyl-O-[1-ethoxycarbonylmethyl-pyridaz-(6)-on-(3)-yl]-thionophosphoric acid ester, reference compound]
mortality at 10 ppm [2]: > 50% | mortality at 100 ppm [2]: 100% | toxicity to warm-blooded animals [6]: high toxicity to warm-blooded animals | insecticidal and acaricidal properties [7]: good insecticidal and acaricidal properties

CCOP(=S)(OCC)Oc1ccc(=O)n(-c2ccc(C)cc2)n1 [Compound F, O,O-diethyl-[1-p-methylphenyl-pyridaz-(6)-on-(3)-yl]-thionophosphoric acid ester, reference compound]
mortality at 0.01 % [4]: 0% | mortality at 0.1 % [4]: 40% | LD50 at 168 h [1]: 50 to 100 mg/kg | toxicity to warm-blooded animals [6]: high toxicity to warm-blooded animals | insecticidal and acaricidal properties [7]: good insecticidal and acaricidal properties

CCOP(=S)(OCC)Oc1ccc(=O)n(CCC(C)=O)n1 [G]
mortality at 0.001 % ([5]; after 3 days): 0% | mortality at 0.01 % ([5]; after 3 days): 80% | mortality at 0.1 % [5]: 100% | LD50 at 168 h [1]: 10 to 25 mg/kg

CCOP(=S)(OCC)Oc1n[nH]c(=O)c2ccccc12 [known, reference compound]
mortality at 0.01 % ([3]; after 1 day): 0% | mortality at 0.1 % [3]: 100%
